Reference: ChEMBL document CHEMBL5727342, “Imidazo[4,5-C]pyridine and pyrrolo[2,3-C]pyridine derivatives as SSAO inhibitors” (2018)

Target: Voltage-gated inwardly rectifying potassium channel KCNH2 (Homo sapiens, UniProt Q12809)
Experiment: Electrophysiological recordings were made from a Chinese Hamster Lung cell line stably expressing the full length hERG channel. Single cell ion currents were measured in the perforated patch clamp configuration (100 ug/mL amphoterocin) at room temperature using an IonWorks Quattro instrument. The internal solution contained 140 mM KCl, 1 mM MgCl2, 1 mM EGTA and 20 mM HEPES and was buffered to pH 7.3. […] This sequence was repeated 5 times at a frequency of 0.25 Hz. […] Compounds were incubated for 6-7 min prior to a second measurement of the hERG signal using an identical pulse train.

Voltage-gated inwardly rectifying potassium channel KCNH2, sequence (Q12809 whole entry): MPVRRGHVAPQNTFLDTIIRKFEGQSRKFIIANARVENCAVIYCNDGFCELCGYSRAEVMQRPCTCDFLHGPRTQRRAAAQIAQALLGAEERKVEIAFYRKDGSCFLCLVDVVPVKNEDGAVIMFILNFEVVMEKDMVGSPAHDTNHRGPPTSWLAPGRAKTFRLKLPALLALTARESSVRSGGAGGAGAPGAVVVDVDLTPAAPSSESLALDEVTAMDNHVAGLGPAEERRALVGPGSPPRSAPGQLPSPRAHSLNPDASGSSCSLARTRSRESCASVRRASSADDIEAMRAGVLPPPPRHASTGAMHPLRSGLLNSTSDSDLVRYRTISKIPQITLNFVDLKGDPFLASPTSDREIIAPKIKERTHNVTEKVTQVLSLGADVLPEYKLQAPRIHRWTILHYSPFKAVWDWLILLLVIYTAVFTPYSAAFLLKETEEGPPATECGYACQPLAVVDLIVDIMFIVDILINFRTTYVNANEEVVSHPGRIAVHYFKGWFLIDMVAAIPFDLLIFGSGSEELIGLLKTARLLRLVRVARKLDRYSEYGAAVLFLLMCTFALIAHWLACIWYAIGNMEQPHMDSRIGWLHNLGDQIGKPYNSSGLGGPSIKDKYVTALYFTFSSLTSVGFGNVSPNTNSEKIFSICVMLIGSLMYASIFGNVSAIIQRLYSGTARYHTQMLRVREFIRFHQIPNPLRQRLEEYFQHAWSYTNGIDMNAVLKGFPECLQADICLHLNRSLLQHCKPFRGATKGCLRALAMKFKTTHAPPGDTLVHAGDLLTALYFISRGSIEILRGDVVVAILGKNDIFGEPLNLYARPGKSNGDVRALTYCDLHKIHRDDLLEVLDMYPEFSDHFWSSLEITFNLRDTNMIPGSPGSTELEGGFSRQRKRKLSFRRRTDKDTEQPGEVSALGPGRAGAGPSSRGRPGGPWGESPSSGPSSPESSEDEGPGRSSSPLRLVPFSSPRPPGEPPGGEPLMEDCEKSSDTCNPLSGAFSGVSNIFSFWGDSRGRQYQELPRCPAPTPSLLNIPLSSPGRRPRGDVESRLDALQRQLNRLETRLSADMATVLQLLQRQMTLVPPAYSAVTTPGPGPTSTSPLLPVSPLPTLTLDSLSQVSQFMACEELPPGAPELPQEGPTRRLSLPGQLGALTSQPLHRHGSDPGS

With `Clc1ccc(-n2c(-c3ccncc3)nc3ccncc32)cc1` as the compound, how does the IC50 read?
The IC50 was “in the range around 5.5 µM”.
